Test results taken from patent publication US6689790B2, “Substituted triazolopyridine compounds” (Hoffmann-La Roche Inc., priority 2001, dated 2004).
Like-named read-outs stand apart in the source and are kept apart here.

What was measured:
hA1 = biological target: T1, hA1 (Homo sapiens, UniProt P30542); test: hA1 receptor affinity (Ki); type: binding; settings: list of examples 10-108
T1 sequence (P30542 1-326): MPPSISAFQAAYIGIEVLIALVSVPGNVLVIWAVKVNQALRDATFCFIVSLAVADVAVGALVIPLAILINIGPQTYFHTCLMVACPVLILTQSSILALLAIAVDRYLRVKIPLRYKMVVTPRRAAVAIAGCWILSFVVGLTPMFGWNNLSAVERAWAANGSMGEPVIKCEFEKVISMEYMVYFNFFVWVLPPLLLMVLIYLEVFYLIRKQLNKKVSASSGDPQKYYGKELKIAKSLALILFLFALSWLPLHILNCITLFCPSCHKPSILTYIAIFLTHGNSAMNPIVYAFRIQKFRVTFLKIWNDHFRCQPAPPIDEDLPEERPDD

[1] = biological target: T2, human adenosine A2A receptor (Homo sapiens, UniProt P29274); test: [3H]-SCH-58261 binding assay, human adenosine A2A receptor (CHO cell membranes, SPA); settings: for Ki: [3H]-SCH-58261 displacement, read-out: hA2a Ki; for Select. A1/A2a: ratio hA1 Ki / hA2a Ki
T2 construct: expressed in transfected cells; host or cells: CHO cells, semliki forest virus expression system; washed membranes
Protocol: Human Adenosine A2A Receptor
The human adenosine A2A receptor was recombinantly expressed in chinese hamster ovary (CHO) cells using the semliki forest virus expression system. Cells were harvested, washed twice by centrifugation, homogenized and again washed by centrifugation. The final washed membrane pellet was suspended in a Tris (50 mM) buffer containing 120 mM NaCl, 5 mM KCl, 2 mM CaCl2 and 10 mM MgCl2 (pH 7.4) (buffer A). […] Compounds were tested at 10 concentrations from 10 μM-0.3 nM. All assays were conducted in duplicate and repeated at least two times. Assay plates were incubated for 1 hour at room temperature before centrifugation and then bound ligand determined using a Packard Topcount scintillation counter. IC50 values were calculated using a non-linear curve fitting program and Ki values calculated using the Cheng-Prussoff equation.

[2] = Ki by Cheng-Prussoff, table of preferred compounds

T2 sequence (P29274 whole entry): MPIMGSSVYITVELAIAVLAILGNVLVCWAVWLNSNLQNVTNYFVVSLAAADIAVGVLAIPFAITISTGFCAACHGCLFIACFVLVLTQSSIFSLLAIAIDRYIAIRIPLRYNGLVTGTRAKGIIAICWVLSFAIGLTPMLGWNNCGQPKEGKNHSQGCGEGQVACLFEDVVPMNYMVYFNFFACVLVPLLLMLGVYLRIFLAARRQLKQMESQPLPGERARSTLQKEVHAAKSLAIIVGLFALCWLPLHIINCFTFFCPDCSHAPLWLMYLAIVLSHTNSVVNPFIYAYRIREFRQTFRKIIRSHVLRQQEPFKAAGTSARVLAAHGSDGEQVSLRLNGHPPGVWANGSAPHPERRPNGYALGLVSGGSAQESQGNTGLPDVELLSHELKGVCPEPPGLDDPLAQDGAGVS

Compound	Ki (hA1) [nM]	Ki [1, 2] [nM]	Select. A1/A2a [1]	Ki ([1]; list of examples 10-108) [nM]
C[C@@H]1C[C@@H](C)CN(C(=O)c2cc(N)c3nc(-c4ccc(Br)o4)nn3c2)C1 (stereo in doubt) [Example 14, [8-Amino-2-(5-bromo-furan-2-yl)-[1,2,4]triazolo[1,5-a]pyridin-6-yl]-(3,5-dimethyl-piperidin-1-yl)-methanone]	1190	37.2	32	
COCC1CCCN1C(=O)c1cc(N)c2nc(-c3ccco3)nn2c1 (stereo in doubt) [Example 41, (8-Amino-2-furan-2-yl-[1,2,4]triazolo[1,5-a]pyridin-6-yl)-(2-R-methoxymethyl-pyrrolidin-1-yl)-methanone]	4360	77.6	56.2	
CCN(CC)C(=O)C1CCCN(C(=O)c2cc(N)c3nc(-c4ccc(Br)o4)nn3c2)C1 (stereo not drawn) [Example 13, 1-[8-Amino-2-(5-bromo-furan-2-yl)-[1,2,4]triazolo[1,5-a]pyridine-6-carbonyl]-piperidine-3-carboxylic acid diethylamide]	2690			
CC1CCCCN1C(=O)c1cc(N)c2nc(-c3ccc(Br)o3)nn2c1 (stereo not drawn) [Example 15, [8-Amino-2-(5-bromo-furan-2-yl)-[1,2,4]triazolo[1,5-a]pyridin-6-yl]-(2-methyl-piperidin-1-yl)-methanone]	1940			
COC[C@@H]1CCCN1C(=O)c1cc(N)c2nc(-c3ccc(Br)o3)nn2c1 [Example 16, [8-Amino-2-(5-bromo-furan-2-yl)-[1,2,4]triazolo[1,5-a]pyridin-6-yl]-(2-methoxymethyl-pyrrolidin-1-yl)-methanone]	1050			
CN(C)C(=O)[C@@H]1CCCN1C(=O)c1cc(N)c2nc(-c3ccc(Br)o3)nn2c1 [Example 18, 1-[8-Amino-2-(5-bromo-furan-2-yl)-[1,2,4]triazolo[1,5-a]pyridine-6-carbonyl]-pyrrolidine-2-carboxylic acid (S)-dimethylamide]	1110	67	16.5	
CN(C)C(=O)CN(C)C(=O)c1cc(N)c2nc(-c3ccc(Br)o3)nn2c1 [Example 19, 8-Amino-2-(5-bromo-furan-2-yl)-[1,2,4]triazolo[1,5-a]pyridine-6-carboxylic acid dimethylcarbamoyl-methyl-methyl-amide]	3000			
CC1CCCN(C(=O)c2cc(N)c3nc(-c4ccc(Br)o4)nn3c2)C1 (stereo not drawn) [Example 20, [8-Amino-2-(5-bromo-furan-2-yl)-[1,2,4]triazolo[1,5-a]pyridin-6-yl]-(3-methyl-piperidin-1-yl)-methanone]	803			
CCCN(C)C(=O)c1cc(N)c2nc(-c3ccc(Br)o3)nn2c1 [Example 21, 8-Amino-2-(5-bromo-furan-2-yl)-[1,2,4]triazolo[1,5-a]pyridine-6-carboxylic acid methyl-propyl-amide]	1150			
CCN(CCc1ccccn1)C(=O)c1cc(N)c2nc(-c3ccc(Br)o3)nn2c1 [Example 22, 8-Amino-2-(5-bromo-furan-2-yl)-[1,2,4]triazolo[1,5-a]pyridine-6-carboxylic acid ethyl-(2-pyridin-2-yl-ethyl)-amide]	1420			
Nc1cc(C(=O)N2CCSCC2)cn2nc(-c3ccc(Br)o3)nc12 [Example 23, [8-Amino-2-(5-bromo-furan-2-yl)-[1,2,4]triazolo[1,5-a]pyridin-6-yl]-thiomorpholin-4-yl-methanone]	937			
CN(CCC#N)C(=O)c1cc(N)c2nc(-c3ccc(Br)o3)nn2c1 [Example 24, 8-Amino-2-(5-bromo-furan-2-yl)-[1,2,4]triazolo[1,5-a]pyridine-6-carboxylic acid (2-cyano-ethyl)-methyl-amide]	830		7.5	111
CN(CCc1ccccc1)C(=O)c1cc(N)c2nc(-c3ccc(Br)o3)nn2c1 [Example 25, 8-Amino-2-(5-bromo-furan-2-yl)-[1,2,4]triazolo[1,5-a]pyridine-6-carboxylic acid methyl-phenethyl-amide]	590			
Nc1cc(C(=O)N2CCCC2)cn2nc(-c3ccccn3)nc12 [Example 26, (8-Amino-2-pyridin-2-yl-[1,2,4]triazolo[1,5-a]pyridin-6-yl)-pyrrolidin-1-yl-methanone]	3570			
Nc1cc(C(=O)N2CCCC2)cn2nc(-c3ccco3)nc12 [Example 34, (8-Amino-2-furan-2-yl-[1,2,4]triazolo[1,5-a]pyridin-6-yl)-pyrrolidin-1-yl-methanone]	4200			
Nc1cc(C(=O)N2CCCCC2)cn2nc(-c3ccco3)nc12 [Example 35, (8-Amino-2-furan-2-yl-[1,2,4]triazolo[1,5-a]pyridin-6-yl)-piperidin-1-yl-methanone]	3440			
CC1CCCN1C(=O)c1cc(N)c2nc(-c3ccco3)nn2c1 (stereo not drawn) [Example 37, (8-Amino-2-furan-2-yl-[1,2,4]triazolo[1,5-a]pyridin-6-yl)-(2-methyl-pyrrolidin-1-yl)-methanone]	2940	34.9	84.2	
CC1CCCCN1C(=O)c1cc(N)c2nc(-c3ccco3)nn2c1 (stereo not drawn) [Example 39, (8-Amino-2-furan-2-yl-[1,2,4]triazolo[1,5-a]pyridin-6-yl)-(2-methyl-piperidin-1-yl)-methanone]	2190		16.1	136
COC[C@H]1CCCN1C(=O)c1cc(N)c2nc(-c3ccco3)nn2c1 [Example 42, (8-Amino-2-furan-2-yl-[1,2,4]triazolo[1,5-a]pyridin-6-yl)-(2-S-methoxymethyl-pyrrolidin-1-yl)-methanone]	5630	69.4	81.1	
NC(=O)[C@H]1CCCN1C(=O)c1cc(N)c2nc(-c3ccco3)nn2c1 [Example 43, 1-(8-Amino-2-furan-2-yl-[1,2,4]triazolo[1,5-a]pyridine-6-carbonyl)-pyrrolidine-2-R-carboxylic acid amide]	2330		16.9	138
CC1CCCN(C(=O)c2cc(N)c3nc(-c4ccco4)nn3c2)C1 (stereo not drawn) [Example 46, (8-Amino-2-furan-2-yl-[1,2,4]triazolo[1,5-a]pyridin-6-yl)-(3-methyl-piperidin-1-yl)-methanone]	2690		20.4	131
Nc1cc(C(=O)N(Cc2ccccc2)Cc2ccccc2)cn2nc(-c3ccco3)nc12 [Example 48, 8-Amino-2-furan-2-yl-[1,2,4]triazolo[1,5-a]pyridine-6-carboxylic acid dibenzylamide]	247		7.5	32.7
Nc1cc(C(=O)N2CCCC2)cn2nc(-c3cccs3)nc12 [Example 51, (8-Amino-2-thiophen-2-yl-[1,2,4]triazolo[1,5-a]pyridin-6-yl)-pyrrolidin-1-yl-methanone]	725			
Nc1cc(C(=O)N(Cc2ccccc2)Cc2ccccc2)cn2nc(-c3cccs3)nc12 [Example 64, 8-Amino-2-thiophen-2-yl-[1,2,4]triazolo[1,5-a]pyridine-6-carboxylic acid dibenzylamide]	311	83	3.7	
Cc1ccc(-c2nc3c(N)cc(C(=O)N4CCCC4)cn3n2)o1 [Example 83, [8-Amino-2-(5-methyl-furan-2-yl)-[1,2,4]triazolo[1,5-a]pyridin-6-yl]-pyrrolidin-1-yl-methanone]	1640			
Cc1ccc(-c2nc3c(N)cc(C(=O)N4CCCCC4)cn3n2)o1 [Example 84, [8-Amino-2-(5-methyl-furan-2-yl)-[1,2,4]triazolo[1,5-a]pyridin-6-yl]-piperidin-1-yl-methanone]	1270			
Cc1ccc(-c2nc3c(N)cc(C(=O)N4CCCC4C)cn3n2)o1 (stereo not drawn) [Example 85, [8-Amino-2-(5-methyl-furan-2-yl)-[1,2,4]triazolo[1,5-a]pyridin-6-yl]-(2-methyl-pyrrolidin-1-yl)-methanone]	1360	75.2	18.1	
Cc1ccc(-c2nc3c(N)cc(C(=O)N4CCCC(C)C4)cn3n2)o1 (stereo not drawn) [Example 88, [8-Amino-2-(5-methyl-furan-2-yl)-[1,2,4]triazolo[1,5-a]pyridin-6-yl]-(3-methyl-piperidin-1-yl)-methanone]	1350	56.2	24	
